Test results taken from patent US6576668B1, “Remedies for arthrosis deformans” (Santen Pharmaceutical Co., Ltd., priority 1999, dated 2003).

Tests used:
[1] = system: mobility of knee joint, rabbit-immobilized models; experiment: Improvement effect on mobility of knee joint in rabbit-immobilized models; format: in vivo, NZW rabbits; details: for Mobility of knee joint (degree): measured on 29th day, control 42, average of ten samples
Description: In order to study in vivo effects of the present compound on osteoarthritis, an improvement effect on a mobility of a knee joint was investigated by using rabbit-immobilized models. A test compound was suspended in a 1% aqueous methyl cellulose solution to prepare test compound solutions having desired concentrations. Knee joints of right hind paws of NZW rabbits (13 weeks old, body weight: 2.97 to 3.27 kg) were fixed in an extended position with plaster bandages under sodium pentobarbital (25 mg/kg) anesthesia. Administering orally the test compound (amount of liquid to be administered: 10 ml/kg) to the rabbits for four weeks, the rabbits were sacrificed by exsanguination on the 29th day, and then mobilities of the knee joints were measured. A similar experiment was carried out by using a 1% aqueous methyl cellulose solution (10 ml/kg) as a control instead of the test compound. The mobility of the knee joint was determined from a difference between a maximum flection angle obtained when a paw joint of the rabbit was vertically loaded with a load of 400 g and a maximum extension angle.

[2] = system: MMP-3 production of chondrocytes; experiment: MMP-3 production of IL-1β-treated chondrocytes (MMP-3 activity in culture supernatant); format: cell-based; details: Oryctolagus cuniculus, Chondrocyte, 48 h, rabbit chondrocytes, IL-1β 1 ng/ml, two days culture, average of three samples, read-out: Production inhibition rate (%) (MMP-3)
Description: In order to study utility of the present compound, actions of the present compound on MMP-3 production and degradation of proteoglycan after IL-1β treatment were studied by using chondrocytes separated from femurs of rabbit knee joints according to the report of Nose et al. (J. Rheumatology, 24, 550-554 (1997)). The action on MMP-3 production was studied by measuring MMP-3 activity. The action on degradation of proteoglycan was studied by measuring glycosaminoglycan (GAG) being a degradation product of proteoglycan. Femurs of knee joints of male Japanese white rabbits were enucleated. Surface cartilage of the femur was sliced into small pieces, and then tissues were dissociated by enzyme treatment to prepare chondrocytes. A mammal cell culture basal medium D-MEM (Dulbecco's Modified Eagle Medium, produced by Gibco Co., Ltd.) containing β-ketoglutaric acid (5 μg/ml), L-ascorbic acid (50 μg/ml), lactoalbumin hydrolyzate (0.2 mg/ml), penicillin (100 U/ml) and streptomycin (100 μg/ml) (hereinafter referred to as “medium A”) was prepared. […] A culture supernatant was collected, and MMP-3 activity in the supernatant was measured with MMP-3 assay Kit (produced by Yagai Co., Ltd.). […]

[3] = system: degradation of proteoglycan in chondrocytes; experiment: Degradation of proteoglycan in IL-1β-treated chondrocytes (GAG concentration in supernatant); format: cell-based; details: Oryctolagus cuniculus, Chondrocyte, 48 h, rabbit chondrocytes, IL-1β 1 ng/ml, two days culture, average of three samples, read-out: Degradation inhibition rate (%) (proteoglycan)
Description: In order to study utility of the present compound, actions of the present compound on MMP-3 production and degradation of proteoglycan after IL-1β treatment were studied by using chondrocytes separated from femurs of rabbit knee joints according to the report of Nose et al. (J. Rheumatology, 24, 550-554 (1997)). The action on MMP-3 production was studied by measuring MMP-3 activity. The action on degradation of proteoglycan was studied by measuring glycosaminoglycan (GAG) being a degradation product of proteoglycan. Femurs of knee joints of male Japanese white rabbits were enucleated. Surface cartilage of the femur was sliced into small pieces, and then tissues were dissociated by enzyme treatment to prepare chondrocytes. A mammal cell culture basal medium D-MEM (Dulbecco's Modified Eagle Medium, produced by Gibco Co., Ltd.) containing β-ketoglutaric acid (5 μg/ml), L-ascorbic acid (50 μg/ml), lactoalbumin hydrolyzate (0.2 mg/ml), penicillin (100 U/ml) and streptomycin (100 μg/ml) (hereinafter referred to as “medium A”) was prepared. […] A GAG concentration in the supernatant was measured according to the method of Farndale et al. (Biochim. Biophys. Acta, 883, 173-177 (1986)). […]

In the case of CC(C)(S)C(=O)N[C@@H](CS)C(=O)O [Bucillamine, bucillamine], the “Mobility of knee joint (degree)” value ([1]; 10 mg/kg orally for four weeks) is reported as 46 degree, the “Mobility of knee joint (degree)” value ([1]; 30 mg/kg orally for four weeks) is reported as 48 degree and the “Mobility of knee joint (degree)” value ([1]; 100 mg/kg orally for four weeks) is reported as 53 degree. For the same molecule, the “Effect on mobility of the rabbit knee joint (in words)” value ([1]; 10 to 100 mg/kg orally for four weeks) was “improves the mobility of the rabbit knee joint dose-dependently”, the inhibition at 3 µM [2] was 28% and the inhibition at 3 µM [3] was 19%.
